Data published in US20070054868A1, “Synergistic polyphenol compounds, compositions thereof, and uses thereof” (The Trustees of Columbia University in the City of New York, priority 2005, published 2007).

What was measured:
[1] = test system: AP-1 promoter; assay: Transient transfection luciferase reporter assay in SW837 cells; type: cell-based, human; settings: 10 and 20 μg/mL, 24 hours, inhibition most apparent for this promoter
Procedure: (§1) Reporter assays were performed performed using the methods described in Suzui, et al., Cancer Res., 62:3997-4006 (2002). The COX-2-luciferase reporter plasmid phPES2(−327/+59) was provided by the National Cardiovascular Research Institute (Osaka, Japan). The pAP-1 luciferase reporter plasmid was provided by the National Cancer Institute (Bethesda, Md.). The NF-[…]B promoter luciferase reporter plasmid […]NF-[…]B-Luc is described in Masuda et al., Clin. Cancer Res. 7:4220-4229 (2001). One μg of DNA of the indicated luciferase reporter plasmid was transfected into SW837 human colon cancer cells (3.0×10^5 cells/35-mm diameter dish) using Lipofectin reagent (Invitrogen) in opti-MEM I medium (Invitrogen). After 24 hours the cells were treated with EGCG (0, 10, or 20 μg/mL) for 24 hours, and extracts were then prepared. Luciferase activities were determined using a luciferase assay system ([…]., Madison, Wis.). In all of these reporter assays the cells were also cotransfected with a CMV-[…]-galactosidase ([…]-gal) reporter. Luciferase activities were normalized with respect to the […]-gal activities, to correct for differences in transfection efficiency, using the methods described in Suzui, et al., Cancer Res., 62:3997-4006 (2002).

[2] = test system: COX-2 promoter; assay: as above; type: cell-based, human; settings: 10 and 20 μg/mL, 24 hours
Procedure: as §1

[3] = test system: NF-κB promoter; assay: as above; type: cell-based, human; settings: 10 and 20 μg/mL, 24 hours
Procedure: as §1

[4] = test system: p-HER3; assay: Immunoprecipitation and western blot analysis in SW837 cells; type: cell-based, human
Description: Total cellular protein was extracted and equivalent amounts of protein can be determined by western blot analysis using the methods described in Suzui, et al., Cancer Res., 62:3997-4006 (2002). The primary antibodies for several proteins are described in Masuda et al., Clin Cancer Res., 7:4220-4229 (2001); Masuda et al., Clin Cancer Res., 9:3486-3491 (2003); and Shimizu et al., Clin Cancer Res., 11:2735-2746 (2005). The primary antibodies for HER3 (2F12) and COX-2 (PG27) were purchased from Upstate Cell Signaling Solutions (Charlottesville, Va.) and Oxford Biochemical Research (Oxford, Mich.), respectively. To examine the levels of expression of the phosphorylated (i.e. activated) form of the HER3 protein (p-HER3), cellular lysates (1 mg/mL) were incubated with 4 μg anti-HER3 antibody overnight at 4° C. with slow agitation, and immune complexes were then precipitated by adding protein A/G agarose (sc-2003, Santa Cruz Biotechnology, Santa Cruz, Calif.). After incubating for 2 hours at 4° C., the beads were washed with lysis buffer, and bound proteins were eluted into the sample buffer and subjected to western blot analysis, as described above. The p-HER3 protein was then detected by using an anti-phospho-tyrosine antibody (PY-20-HRP, BD Transduction Laboratories, San Diego, Calif.). An antibody to actin was used as a loading control. […]

[5] = test system: HepG2 human liver cancer cells; assay: MTT cell proliferation assay; type: cell-based
Procedure: Using the MTT cell proliferation assay described in Example 21, and substituting HepG2 human liver cancer cells in place of SW837 cells, the effects of EGCG (20 μg/mL), an illustrative Synergistic Polyphenol Compound, on the production of IGF-1, IGF-2 and IGFBP-3 was determined. […] Accordingly, the Synergistic Polyphenol Compounds are useful for treating or preventing liver cancer.

[6] = test system: IGF-1R proteins; assay: Western blot analysis for IGF in SW837 cells, total receptor; type: cell-based, human; settings: 20 μg/mL, during the time course
Description: Total cellular protein was extracted and equivalent amounts of protein were examined by western blot analysis, as described above in Example 6. Cell lysates were separated by SDS-PAGE using 7.5 to 15% polyacrylamide gels and transferred onto Immobilon-P transfer membranes (Millipore Co., Bedford, Mass.). The primary antibodies for IGF-1R[…](#3022) and p-IGF-1R (#3021) were purchased from Cell Signaling Technology (Beverly, Mass.). The primary antibodies for IGF-1R[…](sc-713) and IGFBP-3 (sc-6003) were purchased from Santa Cruz Biotechnology (Santa Cruz, Calif.). The primary antibodies for IGF-1 (clone Sm1.2) and actin (A2066) were purchased from Upstate Cell Signaling Solutions (Charlottesville, Va.) and Sigma Chemical Co. (St Louis, Mo.), respectively. An antibody to actin was used as a loading control. Anti-mouse IgG (Amersham Pharmacia Biosciences, Piscataway, N.J.), anti-rabbit IgG (Amersham Pharmacia Biosciences), or anti-goat IgG (Santa Cruz Biotechnology) antibodies were used as the secondary antibodies. Each membrane was developed using an ECL-enhanced chemiluminescence system (Amersham Biosciences).

[7] = test system: COX-2 mRNA; assay: Semiquantitative RT-PCR analysis in SW837 cells; type: cell-based, human; settings: 20 μg/mL
Procedure: RNA extraction and semiquantitative RT-PCR analysis were performed using the methods described in Suzui, et al., Cancer Res., 62:3997-4006 (2002). Total RNA was isolated from SW837 human colon cancer cells using Trizol reagent (Invitrogen) according to the manufacturer's instructions. cDNA was amplified from 1 μg of total RNA using SuperScript one-step RT-PCR with the platinum Taq system (Invitrogen). PCR was conducted for 25 cycles in a thermal controller (Programmable Thermal Controller; MJ Research Inc., Watertown, Mass.). The COX-2 specific primer sets […]-2 ([NT]) and […]-2 ([NT]) were designed using the sequence described in Hla et al., Proc. Natl. Acad. Sci. USA, 89:7384-7388 […]. Actin specific primer sets and the amplification cycle conditions were as described in Suzui, et al., Cancer Res., 62:3997-4006 (2002). The intensities of mRNA bands were quantified using NIH Image software version 1.62.

In the case of (−)-epigallocatechin gallate, the “AP-1 luciferase reporter activity” value [1] is reported as “inhibition”, the “COX-2 luciferase reporter activity” value [2] is reported as “inhibition” and the “NF-κB luciferase reporter activity” value [3] is reported as “inhibition”. For the same substance, the “levels of the p-HER3 protein” value ([4]; 1.0 μg/mL, 96 hours) was “decrease”, the “levels of the p-HER3 protein” value ([4]; 20 μg/mL, within 6 hours) was “marked decrease” and the “IC50, growth of HepG2 cells” value [5] was 21 µg/mL. For the same substance, the “levels of the IGF-1R proteins (total)” value [6] was “no significant changes”, the “cellular level of the COX-2 mRNA” value ([7]; at 48 hours) was “marked decrease” and the “cellular level of the COX-2 mRNA” value ([7]; beginning at about 6 hours) was “progressive decrease”.
